{
  "source": "patent US8241866B2",
  "about": "“Method for detection of microorganism and kit for detection of microorganism” (Morinaga Milk Industry Co., Ltd., priority 2005, dated 2012)",
  "key": {"[1]": {"system": "Escherichia coli (live cells) and contaminants originated in UHT homogenized milk", "format": "cell-based", "settings": "treatment after LP treatment, 37° C.; amsacrine 10 minutes, others 30 minutes; 7.5×10^6 cfu/ml", "source_text": "Specific procedures are as shown in a) to d) described below."}, "Escherichia coli DH5α": {"system": "Escherichia coli DH5α", "assay": "FCM measurement after SYTO9/PI staining of EMA-treated Escherichia coli suspensions (live, injured, dead cells)", "format": "cell-based"}, "[2]": {"system": "Staphylococcus epidermidis KD strain", "assay": "FCM measurement after SYTO9/PI staining of LP-treated and EMA-treated Staphylococcus epidermidis suspensions", "format": "cell-based", "settings": "EMA treatment after LP treatment; 10 μl of 1000 μg/ml EMA to 1 ml, 4° C. 30 minutes, visible light 500 W 10 minutes"}, "[3]": {"system": "Escherichia coli (injured cells)", "format": "cell-based", "settings": "injured cells inoculated at 1.5×10^6 cfu/ml; LP treatment and EMA treatment"}, "[4]": {"system": "chromosomal DNA of Escherichia coli DH5α", "assay": "Agarose gel electrophoresis of chromosomal DNA after EMA treatment, Escherichia coli", "format": "cell-based", "design": "key: presence of this band was indicated as (+); absence of this band was indicated as (−)"}, "[5]": {"system": "chromosomal DNA of Klebsiella oxytoca JCM 1665", "assay": "Agarose gel electrophoresis of chromosomal DNA after EMA treatment, Klebsiella", "format": "cell-based", "design": "key: presence of this band was indicated as (+); absence of this band was indicated as (−)", "settings": "EMA 4° C. 30 minutes"}, "[6]": {"system": "chromosomal DNA of Citrobacter koseri JCM 1658", "assay": "Agarose gel electrophoresis of chromosomal DNA after EMA treatment, Citrobacter", "format": "cell-based", "design": "key: presence of this band was indicated as (+); absence of this band was indicated as (−)", "settings": "EMA 4° C. 30 minutes"}, "[7]": {"system": "chromosomal DNA of Salmonella enteritidis IID 604", "assay": "Agarose gel electrophoresis of chromosomal DNA after EMA treatment, Salmonella", "format": "cell-based", "design": "key: presence of this band was indicated as (+); absence of this band was indicated as (−)", "settings": "EMA 4° C. 30 minutes"}, "[8]": {"system": "contaminants in heparinized human blood", "assay": "FCM of human blood by EMA-LNP-FP method versus LNP-FP method", "format": "cell-based", "settings": "10 μl of 1000 μg/ml EMA to 1 ml blood, 4° C. 5 minutes, visible light 5 minutes", "experimental": "Heparinized blood (type A) was collected from a healthy human subject, and a Listeria live cell suspension of 1.8×10^8 cfu/ml was diluted 10 times with the blood. The suspension was further serially diluted with the blood to prepare blood inoculated with 1.8×10^3 to […] cfu/ml of Listeria monocytogenes (live cells). […] Then, each sample was irradiated with visible light of 500 W for 5 minutes on ice. 750 μl of physiological saline, 200 μl of a 189 U/ml lipase solution and 10 μl of a 10000 U/ml deoxyribonuclease solution was added to each sample, and the sample was maintained at 30° C. for 30 minutes. […] The total volume of the aforementioned EMA-treated blood was carefully overlaid on 2 ml of Ficoll Paque filled beforehand in a 15 ml volume polypropylene tube, and subjected to centrifugation at 100×g for 5 minutes. […] The same procedure as that of the aforementioned method (referred to as the “EMA-LNP-FP method”) was also performed in parallel except that the EMA treatment was not performed (referred to as the “LNP-FP method”) to prepare a sample for FCM measurement."}, "[9]": {"system": "Mycobacterium tuberculosis H37RA", "assay": "FCM after SYTO9/PI staining of EMA-treated Mycobacterium tuberculosis (live, injured, dead cells)"}, "[10]": {"system": "contaminants of somatic cells and injured cells in LTLT non-homogenized milk", "assay": "FCM after SYTO9/PI staining of LP-treated and EMA-treated LTLT non-homogenized milk not inoculated with bacteria", "settings": "LP-treated and EMA-treated (LPE-treated) LTLT non-homogenized milk not inoculated", "protocol": "Each of the LTLT non-homogenized milk inoculated with Escherichia coli (live cells), LTLT non-homogenized milk inoculated with Staphylococcus epidermidis (live cells), and LTLT non-homogenized milk not inoculated with the bacteria was subjected to the same lipase treatment and proteinase K treatment (LP treatment) as well as EMA treatment as those in Example 2.\nFCM measurement was performed for each of the samples prepared above (measurement time: 5 minutes) in the same manner as that in Control Example 1."}, "[11]": {"system": "Listeria monocytogenes JCM 2873", "assay": "Colony formation of Listeria cultured with ampicillin and gentamycin", "format": "cell-based", "settings": "ampicillin 500 μg/ml together with gentamycin 200 μg/ml, 30° C. for 3 weeks"}, "[12]": {"system": "Mycobacterium tuberculosis H37RA", "format": "cell-based"}, "[13]": {"settings": "after the EMA treatment, dead cells (boiling water 12 minutes)"}, "[14]": {"settings": "after the EMA treatment, injured cells (boiling water 50 seconds)"}, "[15]": {"settings": "after the EMA treatment, live cells"}, "[16]": {"settings": "after the EMA treatment (about 30 μg/ml, 4° C. 2.5 hours), injured cells treated with isonicotinic acid hydrazide and rifampicin"}},
  "data": [
    {"compound": "Cc1c2ccncc2c(C)c2c1[nH]c1ccccc12", "note": "[ellipticine]", "values": [
      {"measurement": "separation of plotted areas of Escherichia coli (live cells) and contaminants", "setting": "[1]", "value": "clearly separated"}
    ]},
    {"compound": "CC[n+]1c(-c2ccccc2)c2cc(N=[N+]=[N-])ccc2c2ccc(N)cc21.[Cl-]", "note": "[EMA, 8-azido-3-amino-6-phenyl-5-ethylphenanthradinium chloride]", "values": [
      {"measurement": "distinction of live cells and injured cells by FCM", "setting": "Escherichia coli DH5α; EMA treatment after LP treatment, 10 μl of 1000 μg/ml EMA to 1 ml, 4° C. 30 minutes, visible light 500 W 10 minutes", "value": "clearly distinguish"},
      {"measurement": "intensity of staining with SYTO9 for injured cells", "setting": "Escherichia coli DH5α; after the EMA treatment versus before", "value": "markedly decreased"},
      {"measurement": "PI region of main distribution, dead cells", "setting": "Escherichia coli DH5α; [13]", "value": "PI(+) (The boundary value of the intensity of the staining with PI is defined to be an intensity of 2×10^2, results exceeding that value are represented as PI(+))"},
      {"measurement": "SYTO9 region of main distribution, dead cells", "setting": "Escherichia coli DH5α; [13]", "value": "SYTO9(−) (results lower than that value are represented as SYTO9(−))"},
      {"measurement": "PI region of main distribution, injured cells", "setting": "Escherichia coli DH5α; [14]", "value": "PI(−) (results lower than that value are represented as PI(−))"},
      {"measurement": "SYTO9 region of main distribution, injured cells", "setting": "Escherichia coli DH5α; [14]", "value": "SYTO9(−) (results lower than that value are represented as SYTO9(−))"},
      {"measurement": "PI region of main distribution, live cells", "setting": "Escherichia coli DH5α; [15]", "value": "PI(−) (results lower than that value are represented as PI(−))"},
      {"measurement": "SYTO9 region of main distribution, live cells", "setting": "Escherichia coli DH5α; [15]", "value": "SYTO9(+) (The boundary value of the intensity of the staining with SYTO9 is defined to be an intensity of 10^3, results exceeding that value are represented as SYTO9(+))"},
      {"measurement": "distinction of live cells and injured cells by FCM", "setting": "[2]", "value": "the same results"},
      {"measurement": "plotted points in the SYTO9(+)·PI(−) region suggesting the presence of live cells", "setting": "[3]", "value": "hardly existed"},
      {"measurement": "LL band originated in chromosomal DNA, dead cells", "setting": "[4]; EMA-treated dead cells (FIG. 11)", "value": "(−)"},
      {"measurement": "LL band originated in chromosomal DNA, injured cells", "setting": "[4]; EMA-treated injured cells, EMA 4° C. 30 minutes", "value": "(−)"},
      {"measurement": "LL band originated in chromosomal DNA, live cells", "setting": "[4]; EMA-treated live cells, EMA 4° C. 30 minutes", "value": "(+)"},
      {"measurement": "LL band originated in chromosomal DNA, injured cells", "setting": "[5]; EMA-treated injured cells", "value": "(−)"},
      {"measurement": "LL band originated in chromosomal DNA, live cells", "setting": "[5]; EMA-treated live cells", "value": "(+)"},
      {"measurement": "LL band originated in chromosomal DNA, injured cells", "setting": "[6]; EMA-treated injured cells", "value": "(−)"},
      {"measurement": "LL band originated in chromosomal DNA, live cells", "setting": "[6]; EMA-treated live cells", "value": "(+)"},
      {"measurement": "LL band originated in chromosomal DNA, injured cells", "setting": "[7]; EMA-treated injured cells", "value": "(−)"},
      {"measurement": "LL band originated in chromosomal DNA, live cells", "setting": "[7]; EMA-treated live cells", "value": "(+)"},
      {"measurement": "shift of plotted points of the contaminants corresponding to SYTO9(−)·PI(−)", "setting": "[8]", "value": "not shifted to the left direction"},
      {"measurement": "PI region, injured cells", "setting": "[9]; [16]", "value": "PI(−) (results lower than that value are represented as PI(−))"},
      {"measurement": "SYTO9 region, injured cells", "setting": "[9]; [16]", "value": "SYTO9(−) (results lower than that value are represented as SYTO9(−))"},
      {"measurement": "SYTO9 region of main distribution, dead cells", "setting": "[9]; [13]", "value": "SYTO9(+) (The boundary value of the intensity of the staining with SYTO9 is defined to be an intensity of 10^3, results exceeding that value are represented as SYTO9(+))"},
      {"measurement": "SYTO9 intensity of the injured cells", "setting": "[9]; by the EMA treatment", "value": "markedly shifted to the left direction"},
      {"measurement": "SYTO9 intensity", "setting": "[10]", "value": "below 5×10^2"}
    ]},
    {"compound": "gentamycin", "values": [
      {"measurement": "colony formation on L agar medium", "setting": "[11]", "value": "did not form colonies"}
    ]},
    {"compound": "NNC(=O)c1ccncc1", "note": "[isonicotinic acid hydrazide]", "values": [
      {"measurement": "colony formation on 7H10 medium", "setting": "[12]", "value": "did not form colonies"}
    ]},
    {"compound": "CC1(C)S[C@@H]2[C@H](NC(=O)[C@H](N)c3ccccc3)C(=O)N2[C@H]1C(=O)O", "note": "[ampicillin]", "values": [
      {"measurement": "colony formation on L agar medium", "setting": "[11]", "value": "did not form colonies"}
    ]},
    {"compound": "O=C(O)c1cn(C2CC2)c2cc(N3CCNCC3)c(F)cc2c1=O", "note": "[ciprofloxacin]", "values": [
      {"measurement": "separation of plotted areas of Escherichia coli (live cells) and contaminants", "setting": "[1]", "value": "clearly separated"}
    ]},
    {"compound": "CC[C@@]1(O)C(=O)OCc2c1cc1n(c2=O)Cc2cc3ccccc3nc2-1", "note": "[camptothecin]", "values": [
      {"measurement": "separation of plotted areas of Escherichia coli (live cells) and contaminants", "setting": "[1]", "value": "clearly separated"}
    ]}
  ]
}
